Assay results reported in the supplement of paper PMC11208160.

Experiment: recombinant UMI read abundance after kanamycin selection (control-corrected) (log10(CPM+1)); higher = more efficient recombination; extreme values may be limits of the assay; sequences stand for … in AGTGCAGAGAAAATCGGCCAGTTTTCTCTGCCTGCAGTCCGCATGCCGTGGGACCCCTTGGGTTCTAACCTGTTGCCTAGATTTATGCAGCGGACTGCCTTTCTCCCAAAGTGATAAACCGG…AGGTTGGTTTCACT; site = the 11-nt donor
How it was run: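 Counts of recombinant UMIs were reported as log10(CPM+1). Before that, they were converted to CPM, averaged over replicates and scaled using control-derived factors. They came from PCR across the donor–target junction after Escherichia coli carrying the pair library and target plasmid was plated on IPTG (0.07 mM) plus kanamycin, or unselected, in two replicates each.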
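Note: IS621 bridge recombinase in Escherichia coli cells against a fixed T5 target plasmid.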

| Sequence | recombinant UMI read abundance (log10) |
| --- | --- |
| GTGAAAACATGGACCGGTTTTCCCGGTAATCCGTATTTGCT (site GTGAAAACTAG) | 1.46 |
| GTGAAACCATGGACCGGTTTTCCCGGTAATCCGTATTTGAT (site GTGAAACCTAT) | 0 |
| GTGAGAACATGGACCGGTTTTCCCGGTAATCCGTATTTGCT (site GTGAGAACTAG) | 2.25 |
| GTGAGGGCATGGACCGGTTTTCCCGGTAATCCGTATTTGAA (site GTGAGGGCTTT) | 1.83 |
| GTGATGGCATGGACCGGTTTTCCCGGTAATCCGTATTTGAT (site GTGATGGCTAT) | 2.31 |
| GTGATTCCATGGACCGGTTTTCCCGGTAATCCGTATTTGAC (site GTGATTCCTGT) | 1.95 |
| GTGCAAGCATGGACCGGTTTTCCCGGTAATCCGTATTTGGT (site GTGCAAGCTAC) | 1.28 |
| GTGCAAGCATGGACCGGTTTTCCCGGTAATCCGTATTTGGT (site GTGCACGCTAC) | 0.00225 |
| GTGCAAGCATGGACCGGTTTTCCCGGTAATCCGTATTTGGT (site GTGCAGGCTAC) | 0.602 |
| GTGCAAGCATGGACCGGTTTTCCCGGTAATCCGTATTTGGT (site GTGCATGCTAC) | 0.222 |
| GTGCAGGCATGGACCGGTTTTCCCGGTAATCCGTATTTGTC (site GTGCAGGCTGA) | 2.44 |
| GTGCATCCATGGACCGGTTTTCCCGGTAATCCGTATTTGCC (site GTGCATCCTGG) | 0.749 |
| GTGCATCCATGGACCGGTTTTCCCGGTAATCCGTATTTGGT (site GTGCATACTAC) | 0.0234 |
| GTGCATCCATGGACCGGTTTTCCCGGTAATCCGTATTTGGT (site GTGCATCCTAC) | 0.56 |
| GTGCATCCATGGACCGGTTTTCCCGGTAATCCGTATTTGGT (site GTGCATGCTAC) | 0 |
| GTGCATCCATGGACCGGTTTTCCCGGTAATCCGTATTTGGT (site GTGCATTCTAC) | 0.438 |
| GTGCATGCATGGACCGGTTTTCCCGGTAATCCGTATTTGAT (site GTGCATGCTAA) | 0.00938 |
| GTGCATGCATGGACCGGTTTTCCCGGTAATCCGTATTTGAT (site GTGCATGCTAC) | 0.265 |
| GTGCATGCATGGACCGGTTTTCCCGGTAATCCGTATTTGAT (site GTGCATGCTAG) | 0.649 |
| GTGCATGCATGGACCGGTTTTCCCGGTAATCCGTATTTGAT (site GTGCATGCTAT) | 2.34 |
| GTGCATGCATGGACCGGTTTTCCCGGTAATCCGTATTTGGG (site GTGCATGCTAC) | 0.00412 |
| GTGCATGCATGGACCGGTTTTCCCGGTAATCCGTATTTGGG (site GTGCATGCTCC) | 0.746 |
| GTGCATGCATGGACCGGTTTTCCCGGTAATCCGTATTTGGG (site GTGCATGCTGC) | 0 |

| Sequence | recombinant UMI read abundance (log10) |
| --- | --- |
| GTGCATGCATGGACCGGTTTTCCCGGTAATCCGTATTTGGG (site GTGCATGCTTC) | 0.0162 |
| GTGCATGCATGGACCGGTTTTCCCGGTAATCCGTATTTGTT (site GTGCATGCTAA) | 2.04 |
| GTGCATGCATGGACCGGTTTTCCCGGTAATCCGTATTTGTT (site GTGCATGCTAC) | 0.0189 |
| GTGCATGCATGGACCGGTTTTCCCGGTAATCCGTATTTGTT (site GTGCATGCTAG) | 1.48 |
| GTGCATGCATGGACCGGTTTTCCCGGTAATCCGTATTTGTT (site GTGCATGCTAT) | 1.31 |
| GTGCATTCATGGACCGGTTTTCCCGGTAATCCGTATTTGGT (site GTGCATACTAC) | 0.361 |
| GTGCATTCATGGACCGGTTTTCCCGGTAATCCGTATTTGGT (site GTGCATCCTAC) | 0.0125 |
| GTGCATTCATGGACCGGTTTTCCCGGTAATCCGTATTTGGT (site GTGCATGCTAC) | 0 |
| GTGCATTCATGGACCGGTTTTCCCGGTAATCCGTATTTGGT (site GTGCATTCTAC) | 1.99 |
| GTGCCTGCATGGACCGGTTTTCCCGGTAATCCGTATTTGGT (site GTGCATGCTAC) | 0.0028 |
| GTGCCTGCATGGACCGGTTTTCCCGGTAATCCGTATTTGGT (site GTGCCTGCTAC) | 0.328 |
| GTGCCTGCATGGACCGGTTTTCCCGGTAATCCGTATTTGGT (site GTGCGTGCTAC) | 0.00453 |
| GTGCCTGCATGGACCGGTTTTCCCGGTAATCCGTATTTGGT (site GTGCTTGCTAC) | 0.00506 |
| GTGCTCACATGGACCGGTTTTCCCGGTAATCCGTATTTGAT (site GAGCTCACTAT) | 0.557 |
| GTGCTCACATGGACCGGTTTTCCCGGTAATCCGTATTTGAT (site GCGCTCACTAT) | 0.322 |
| GTGCTCACATGGACCGGTTTTCCCGGTAATCCGTATTTGAT (site GGGCTCACTAT) | 0.0156 |
| GTGCTCACATGGACCGGTTTTCCCGGTAATCCGTATTTGAT (site GTGCTCACTAT) | 1.9 |
| GTGCTTACATGGACCGGTTTTCCCGGTAATCCGTATTTGGC (site GTGCTTACTGC) | 1.9 |
| GTGGAGCCATGGACCGGTTTTCCCGGTAATCCGTATTTGAT (site GTGGAGCCTAT) | 0.00342 |
| GTGGATACATGGACCGGTTTTCCCGGTAATCCGTATTTGTG (site GTGGATACTCA) | 1.92 |
| GTGGGGGCATGGACCGGTTTTCCCGGTAATCCGTATTTGTG (site GTGGAGGCTCA) | 1.07 |
| GTGGGGGCATGGACCGGTTTTCCCGGTAATCCGTATTTGTG (site GTGGCGGCTCA) | 0.0124 |
| GTGGGGGCATGGACCGGTTTTCCCGGTAATCCGTATTTGTG (site GTGGGGGCTCA) | 0.984 |

| Sequence | recombinant UMI read abundance (log10) |
| --- | --- |
| GTGGGGGCATGGACCGGTTTTCCCGGTAATCCGTATTTGTG (site GTGGTGGCTCA) | 0.0315 |
| GTGGGTTCATGGACCGGTTTTCCCGGTAATCCGTATTTGCA (site GTGGGTTCTTG) | 2.55 |
| GTGGTTCCATGGACCGGTTTTCCCGGTAATCCGTATTTGGT (site GTAGTTCCTAC) | 0.553 |
| GTGGTTCCATGGACCGGTTTTCCCGGTAATCCGTATTTGGT (site GTCGTTCCTAC) | 0 |
| GTGGTTCCATGGACCGGTTTTCCCGGTAATCCGTATTTGGT (site GTGGTTCCTAC) | 0.0114 |
| GTGGTTCCATGGACCGGTTTTCCCGGTAATCCGTATTTGGT (site GTTGTTCCTAC) | 0.0137 |
| GTGTATGCATGGACCGGTTTTCCCGGTAATCCGTATTTGGT (site GTGAATGCTAC) | 0.483 |
| GTGTATGCATGGACCGGTTTTCCCGGTAATCCGTATTTGGT (site GTGCATGCTAC) | 1.24 |
| GTGTATGCATGGACCGGTTTTCCCGGTAATCCGTATTTGGT (site GTGGATGCTAC) | 0 |
| GTGTATGCATGGACCGGTTTTCCCGGTAATCCGTATTTGGT (site GTGTATGCTAC) | 2 |
| GTGTCATCATGGACCGGTTTTCCCGGTAATCCGTATTTGCA (site GTGTCATCTTG) | 0.804 |
| GTGTTGCCATGGACCGGTTTTCCCGGTAATCCGTATTTGGC (site GTGTTGCCTGC) | 0 |
| GTGTTTACATGGACCGGTTTTCCCGGTAATCCGTATTTGCG (site GTGTTTACTCG) | 1.66 |
| GTTAACTCATGGACCGGTTTTCCCGGTAATCCGTATTTGAA (site GTTAACTCTTT) | 1.85 |
| GTTAAGGCATGGACCGGTTTTCCCGGTAATCCGTATTTGAG (site GTTAAGGCTCT) | 1.41 |
| GTTACAACATGGACCGGTTTTCCCGGTAATCCGTATTTGGC (site GTTAAAACTGC) | 0.0108 |
| GTTACAACATGGACCGGTTTTCCCGGTAATCCGTATTTGGC (site GTTACAACTGC) | 0 |
| GTTACAACATGGACCGGTTTTCCCGGTAATCCGTATTTGGC (site GTTAGAACTGC) | 0 |
| GTTACAACATGGACCGGTTTTCCCGGTAATCCGTATTTGGC (site GTTATAACTGC) | 0 |
| GTTACGTCATGGACCGGTTTTCCCGGTAATCCGTATTTGTA (site GTTACGTCTTA) | 1.22 |
| GTTACTGCATGGACCGGTTTTCCCGGTAATCCGTATTTGCC (site GATACTGCTGG) | 0 |
| GTTACTGCATGGACCGGTTTTCCCGGTAATCCGTATTTGCC (site GCTACTGCTGG) | 0 |
